Test results from patent US8791158B2, “Methods of treating meibomian gland dysfunction” (GTX, Inc., priority 2010, dated 2014).
Marks after values point to notes of the source that are not given here.

Assays:
[1] = tested on: acute orchiectomized (ORX) rabbit model; test: Palmitate:stearate ratios in tears, Meibomian glands and harderian glands, Example 4; format: in vivo; conditions: for Palmitate:stearate ratios in Meibomian glands / Palmitate:stearate ratios in harderian glands: ORX rabbits, topical 2.5 mg/kg once daily 14 d, mean
Excerpt: The goal of this study was to compare the effects of Compound 1 and Compound 2, two tissue selective SARMs with differing androgenic potential, in modulating tear composition in an acute orchiectomized (ORX) rabbit model.
Twenty New Zealand white rabbits weighing approximately 3 lbs were allowed to acclimate for two weeks before the start of the study Animals were weighed on day 0 of the study, randomized according to body weight and allotted to the following dose groups:
Surgeries for the study were staggered to limit the maximum number of surgeries per day to six. One animal from each group was entered into the study every day and either sham or orchiectomy was performed as described below Animals were premedicated with glycopyrrolate (0.02 mg/kg) and anesthesia was induced with a combination of ketamine (15 mg/kg): medetomidine (0.25 mg/kg). Anesthesia was maintained with isoflurane (1 liter/hr). ORX was performed using a scrotal incision. For the sham operated animals, the scrotal sac was incised and skin closed using tissue glue Animals were revived from anesthesia using atipamezole (1 mg/kg) SQ. Analgesia was provided with buprenorphine (0.05 mg/kg).
Immediately after the animals had recovered from anesthesia, they were dosed with the appropriate test articles as indicated above. Drug dosing was done once daily for 14 d. Blood samples were collected at 30, 60, 120, 240 and 1440 minutes after dose administration on day 11 for pharmacokinetic analyses. Plasma was separated for HPLC analysis of parent drug concentrations. Tears were collected using Schirmer tear strips (Alcon, Tex.) on day 0 before surgery and 24 hours after the last administration of drug (day 15). The tears were stored at −80° C. until shipment for analysis. Lipids were hydrolyzed, extracted from the Schirmer strips, derivatized, and subjected to GC-FID to evaluate the lipid composition. The samples were evaluated for the presence of 28 saturated and unsaturated fatty acids that included methyl caprate (C10:0), methyl laurate (C12:0), methyl 11-dodecenoate (C12:1), methyl myristate (C14:0), methyl myristoleate (C14:1), methyl palmitate (C16:0), methyl palmitoleate (C16:1), methyl stearate (C18:0), methyl oleate (C18:1), methyl vaccenate (C18:1), methyl linoleate (C18:2), methyl gamma linoleate (C18:3), methyl linoleate (C18:3), methyl arachidate (C20:0), methyl 11-eicosenoate (C20:1), methyl 11,14 eicosadinoate (C20:2), methyl 8,11,14 eicosatrienoate (C20:3), methyl eicosapentaenoate (C20:5), methyl behenate (C22:0), methyl erucate (C22:1), methyl 13,16 docosaenoate (C22:2), methyl docosatetraenoate (C22:4), methyl docosapentaenoate (C22:5), methyl docosahexaenoate (C22:6), methyl lignocerate (C24:0), and methyl nervonate (C24:1). Area under the curve for each individual peak was determined using the GC ChemStation software. To normalize for the tear content, the lipid composition was expressed as a ratio of the lipid that was most affected by castration (palmitate) to one which remained relatively constant (stearate).
At the end of the study, the animals were euthanatized. The left harderian and Meibomian glands were collected for lipid analysis and snap frozen using an ethanol:dry ice bath. Samples were stored at −80° C. until shipment for analysis. The right eyelids were embedded in OCT medium and shipped to Paragon Biosciences (Washington D.C.) for histology and Oil-red-O quantification of lipids. Images of three separate fields were taken from each eyelid at random and the amount of cells staining red in each field was scored using commercially available software. A scoring scheme was adopted with a scale of 0-4 to evaluate the staining intensities with 0=<1% cells stained, 1+ for 2-5% of cells stained, 2+=6-10% stain, 3+=11-20% staining, 4+ for >21% cells stained.

[2] = Pharmacokinetic analysis of rabbit plasma after topical dosing, Example 4; format: in vivo; conditions: topical or ocular, 2.5 mg/kg, topical 2.5 mg/kg, day 11 of dosing, read-out: Mean plasma concentrations over time (AUC)
Experimental: Immediately after the animals had recovered from anesthesia, they were dosed with the appropriate test articles as indicated above. Drug dosing was done once daily for 14 d. Blood samples were collected at 30, 60, 120, 240 and 1440 minutes after dose administration on day 11 for pharmacokinetic analyses. Plasma was separated for HPLC analysis of parent drug concentrations. Tears were collected using Schirmer tear strips (Alcon, Tex.) on day 0 before surgery and 24 hours after the last administration of drug (day 15). The tears were stored at −80° C. until shipment for analysis. […] Area under the curve for each individual peak was determined using the GC ChemStation software. To normalize for the tear content, the lipid composition was expressed as a ratio of the lipid that was most affected by castration (palmitate) to one which remained relatively constant (stearate).
Plasma samples collected after dosing on day 11 were analyzed using an LCMS/MS method. […]
Mobile phase consisted of 60% acetonitrile, 40% water and 0.1% formic acid. […] The plasma concentration—time data were analyzed by non-compartmental methods using WinNonlin (Version 3.1, Pharsight Corporation, Mountain View, Calif., USA). The area under the plasma concentration—time curve from time zero to infinity (AUC) was calculated by the trapezoidal rule with extrapolation to time infinity. […]

Structure (SMILES)	Palmitate:stearate ratios in Meibomian glands [1]	Palmitate:stearate ratios in harderian glands [1]	Change of palmitate:stearate ratio in Meibomian glands ([1]; topical 2.5 mg/kg)	Change of palmitate:stearate ratio in harderian glands compared to control animals ([1]; topical 2.5 mg/kg)	AUC [2] [µM·h]	Increase of tear palmitate:stearate ratio over intact vehicle treated animals ([1]; topical 2.5 mg/kg) [fold]	Increase of tear palmitate:stearate ratio relative to ORX vehicle-treated animals ([1]; topical 2.5 mg/kg)
C[C@](O)(COc1ccc(C#N)cc1)C(=O)Nc1ccc(C#N)c(C(F)(F)F)c1 [Compound 1, (S)—N-(4-Cyano-3-(trifluoromethyl)phenyl)-3-(4-cyanophenoxy)-2-hydroxy-2-methylpropanamide]	4.07^b	5.1	two fold increase	no change	25.2		
C[C@](O)(COc1ccc(C#N)c(F)c1)C(=O)Nc1ccc(C#N)c(C(F)(F)F)c1 [Compound 2, (S)—N-(4-cyano-3-(trifluoromethyl)phenyl)-3-(4-cyano-3-fluorophenoxy)-2-hydroxy-2-methylpropanamide]	2.82	7.76	mild increase	significant increase	12.2	~1.5	approximately 2.5 times
